The source of these data is US10005736B1, “Pyridine and pyrimidine derivatives” (Hoffmann-La Roche Inc., priority 2015, dated 2018).

The Kb is the affinity of an antagonist, worked out from how it opposes an agonist. For orientation: melting point means the temperature, or range, at which the solid turns liquid.

In series [1] the target is T1, human EAAT3 (Homo sapiens, UniProt P43005).
T1 construct: expressed in transfected cells; host or cells: HEK-293
T1 sequence (P43005 1-524): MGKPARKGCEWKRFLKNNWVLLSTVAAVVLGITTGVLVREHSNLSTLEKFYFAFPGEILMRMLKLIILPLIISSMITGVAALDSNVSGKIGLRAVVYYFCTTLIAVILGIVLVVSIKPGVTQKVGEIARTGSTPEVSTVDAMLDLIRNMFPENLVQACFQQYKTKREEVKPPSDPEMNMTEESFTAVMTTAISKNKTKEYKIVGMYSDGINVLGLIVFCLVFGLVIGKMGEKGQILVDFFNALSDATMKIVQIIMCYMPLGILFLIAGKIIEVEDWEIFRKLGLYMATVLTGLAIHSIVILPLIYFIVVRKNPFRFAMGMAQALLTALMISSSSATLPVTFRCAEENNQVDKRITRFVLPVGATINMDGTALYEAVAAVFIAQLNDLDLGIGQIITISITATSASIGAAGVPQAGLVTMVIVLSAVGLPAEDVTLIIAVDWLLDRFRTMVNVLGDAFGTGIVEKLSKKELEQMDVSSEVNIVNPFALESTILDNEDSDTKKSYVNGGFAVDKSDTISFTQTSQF
Briefly: FLIPR Membrane Potential (FMP) assay, antagonist potency at human EAAT3. Format: cell-based. Conditions: HEK-293 cells stably expressing human EAAT3; L-glutamate as agonist at EC80; antagonists applied 15 min before; Kb by Cheng-Prusoff from IC50. Here is the method: The FLIPR Membrane Potential (FMP) Assay
HEK-293 cells stably expressing human EAAT3 were seeded at 55 000 cells/well in growth medium (DMEM glutamate free (Invitrogen 11960-044), 1% Pen Strep (10 ml/1 GIBCO BRL N^o 15140-023), 10% FCS non dialysed heat inactivated, 5 mg/l puromycin) in poly-D-lysine treated 96-well black microtiter plates with clear-bottom. After 24 h, the growth medium was removed and […] of Krebs buffer (140 mM NaCl, 4.7 mM KCl, 2.5 mM CaCl2, 1.2 mM MgCl2, 11 mM HEPES, 10 mM D-glucose, pH=7.4) added. The cells were then loaded by adding 100 μl/well FMP assay dye (FLIPR Membrane Potential assay reagent, Molecular Devices). The 96-well plates were then incubated at 37° C. for 1 h. The depolarization of the cells will cause more dye to enter in the cells, where it will bind to intracellular proteins and lipids and cause an increase in the fluorescence signal. Antagonist potency at human EAAT3 was determined by using L-glutamate as agonist at a concentration which gives 80% of the maximum response. The antagonists were applied 15 min before the application of the agonist L-glutamate. The assays were performed at room temperature and measurements done by using a Fluorometric Imaging Plate Reader (FLIPR, Molecular Devices) and filter #2. Responses were measured as peak increase in fluorescence minus basal (i.e. fluorescence without addition of L-glutamate). Kb was determined using the Cheng-Prusoff equation Kb=IC50/[1+(A/EC50)], where IC50 is the concentration of the antagonist producing 50% inhibition, A is the concentration of the agonist against which the IC50 is being determined (at EC80) and EC50 is the concentration of the agonist producing 50% […].

`CCc1ncncc1-c1cc(C(=O)NC(C)(C)C)cc(-c2ccc(Cl)cc2)c1` [Example 40, N-tert-Butyl-3-(4-chlorophenyl)-5-(4-ethyl-pyrimidin-5-yl)-benzamide]: the melting point turned out to be 75 °C. For the same compound, the Kb in series [1] came out at 140 nM.

In turn, `CC(C)c1ncncc1-c1cc(C(=O)NC(C)(C)C(F)(F)F)cc(-c2ccc(Cl)cc2)c1` [Example 18, 3-(4-Chlorophenyl)-5-(4-propan-2-ylpyrimidin-5-yl)-N-(1,1,1-trifluoro-2-methylpropan-2-yl)-benzamide] showed a melting point of 170 °C. In addition, in series [1], the Kb came out at 250 nM. In the case of `CC(C)c1ncncc1-c1cc(C(=O)NC2(C)CCS(=O)(=O)C2)cc(-c2ccc(Cl)cc2)c1` (racemic) [Example 12, (RS)-3-(4-Chlorophenyl)-N-(3-methyl-1,1-dioxothiolan-3-yl)-5-(4-propan-2-ylpyrimidin-5-yl)-benzamide], the Kb in series [1] worked out at 310 nM. With `Cc1ccncc1-c1cc(C(=O)NC(C)(C)C2CC2)cc(-c2ccc(F)cc2)c1` [Example 23, N-(2-Cyclopropylpropan-2-yl)-3-(4-fluorophenyl)-5-(4-methylpyridin-3-yl)-benzamide], the melting point was found to be 76 °C. Moreover, the Kb in series [1] turned out to be 78 nM. In turn, `CC(C)c1ncncc1-c1cc(C(=O)NC(C)(C)CO)cc(-c2ccc(C(F)(F)F)cc2)c1` [Example 45, N-(1-Hydroxy-2-methylpropan-2-yl)-3-(4-propan-2-yl-pyrimidin-5-yl)-5-[4-(trifluoromethyl)-phenyl]-benzamide] displayed a melting point of 80 °C. Take `Cc1ccncc1-c1cc(C(=O)NC(C)(C)C)cc(-c2ccc(F)cc2)c1` [Example 21, N-tert-Butyl-3-(4-fluorophenyl)-5-(4-methylpyridin-3-yl)-benzamide]: the melting point is 83 °C. This compound also returned a Kb in series [1] of 200 nM.

Take `CCC(C)(C)NC(=O)c1cc(-c2ccc(C)cc2)cc(-c2cnccc2C)c1` [Example 4, N-(2-Methylbutan-2-yl)-3-(4-methylphenyl)-5-(4-methylpyridin-3-yl)-benzamide]: the Kb in series [1] turned out to be 290 nM. Regarding `CC(C)c1ncncc1-c1cc(C(=O)NC(C)(C)C2CC2)cc(-c2ccc(Cl)cc2)c1` [Example 16, 3-(4-Chlorophenyl)-N-(2-cyclopropylpropan-2-yl)-5-(4-propan-2-ylpyrimidin-5-yl)-benzamide], the Kb in series [1] was 420 nM. The same measure, in the same setting: with `CCC(C)(C)NC(=O)c1cc(-c2ccc(C)cc2)cc(-c2cccnc2)c1` [Example 1, N-(2-Methylbutan-2-yl)-3-(4-methylphenyl)-5-pyridin-3-ylbenzamide] the figure was 325 nM. `CC(C)c1ncncc1-c1cc(C(=O)NC(C)(C)C)cc(-c2ccc(F)cc2)c1` [Example 20, N-tert-Butyl-3-(4-fluorophenyl)-5-(4-propan-2-ylpyrimidin-5-yl)-benzamide] gave a melting point of 79 °C. The same compound showed an antagonist equilibrium constant (Kb) in series [1] of 81 nM.

`CC(C)c1ncncc1-c1cc(C(=O)NC(C)(C)C#N)cc(-c2ccc(C(F)(F)F)cc2)c1` [Example 37, N-(2-Cyanopropan-2-yl)-3-(4-propan-2-yl-pyrimidin-5-yl)-5-[4-(trifluoromethyl)-phenyl]-benzamide]: the melting point stood at 98 °C. In series [1], the Kb was 210 nM. In turn, `Cc1ncccc1-c1cc(C(=O)NC(C)(C)C2CC2)cc(-c2ccc(Cl)cc2)c1` [Example 17, 3-(4-Chlorophenyl)-N-(2-cyclopropylpropan-2-yl)-5-(2-methylpyridin-3-yl)-benzamide] displayed a Kb in series [1] of 640 nM.

The compound `CC(C)c1ncccc1-c1cc(C(=O)NC(C)(C)C)cc(-c2ccc(Cl)cc2)c1` [Example 15, N-tert-Butyl-3-(4-chlorophenyl)-5-(2-propan-2-ylpyridin-3-yl)-benzamide] returned a Kb in series [1] of 630 nM. For the compound `CCC(C)(C)NC(=O)c1cc(-c2ccc(C)cc2)cc(-c2cncnc2C(C)C)c1` [Example 3, N-(2-Methylbutan-2-yl)-3-(4-methylphenyl)-5-(4-propan-2-ylpyrimidin-5-yl)-benzamide], the Kb in series [1] was determined as 230 nM. `Cc1ncccc1-c1cc(C(=O)NC2(C)CCS(=O)(=O)C2)cc(-c2ccc(Cl)cc2)c1` (racemic) [Example 13, (RS)-3-(4-Chlorophenyl)-N-(3-methyl-1,1-dioxothiolan-3-yl)-5-(2-methyl-pyridin-3-yl)-benzamide] returned a Kb in series [1] of 510 nM. Regarding `Cc1ncncc1-c1cc(C(=O)NC(C)(C)C)cc(-c2ccc(Cl)cc2)c1` [Example 41, N-tert-Butyl-3-(4-chlorophenyl)-5-(4-methyl-pyrimidin-5-yl)-benzamide], the melting point turned out to be 192 °C. Consider `CC(C)c1ncncc1-c1cc(C(=O)NC(C)(C)CO)cc(-c2ccc(Cl)cc2)c1` [Example 43, 3-(4-Chlorophenyl)-N-(1-hydroxy-2-methylpropan-2-yl)-5-(4-propan-2-yl-pyrimidin-5-yl)-benzamide], for which the melting point was found to be 86 °C. `CC(C)c1ncncc1-c1cc(C(=O)NC(C)(C)CO)cc(-c2ccc(F)cc2)c1` [Example 44, 3-(4-Fluorophenyl)-N-(1-hydroxy-2-methylpropan-2-yl)-5-(4-propan-2-yl-pyrimidin-5-yl)-benzamide] came in with a melting point of 63 °C.

Consider `CC(C)(C)NC(=O)c1cc(-c2ccc(F)c(F)c2)cc(-c2cncnc2C(C)(C)C)c1` [Example 48, N-tert-Butyl-3-(4-tert-butyl-primidin-5-yl)-5-(3,4-difluorophenyl)-benzamide], for which the melting point worked out at 99 °C. With `CCC(C)(C)NC(=O)c1cc(-c2ccc(C)cc2)cc(-c2cncnc2)c1` [Example 2, N-(2-Methylbutan-2-yl)-3-(4-methylphenyl)-5-pyrimidin-5-ylbenzamide], the Kb in series [1] was determined as 220 nM.

In turn, `CCC(C)(C)NC(=O)c1cc(-c2ccc(C)cc2)cc(-c2cccnc2C)c1` [Example 5, N-(2-Methylbutan-2-yl)-3-(4-methylphenyl)-5-(2-methylpyridin-3-yl)-benzamide] showed a Kb in series [1] of 250 nM. This Kb and that of the compound before are within 1.5-fold of each other.

`CCC(C)(C)NC(=O)c1cc(-c2ccc(C)cc2)cc(-c2cnccc2C(C)C)c1` [Example 6, N-(2-Methylbutan-2-yl)-3-(4-methylphenyl)-5-(4-propan-2-ylpyridin-3-yl)-benzamide]: the Kb in series [1] amounted to 380 nM.

In the case of `Cc1ncccc1-c1cc(C(=O)NC(C)(C)C(F)(F)F)cc(-c2ccc(Cl)cc2)c1` [Example 19, 3-(4-Chlorophenyl)-5-(2-methylpyridin-3-yl)-N-(1,1,1-trifluoro-2-methylpropan-2-yl)-benzamide], the Kb in series [1] came out at 340 nM. The same measure, in the same setting: for `CCC(C)(C)NC(=O)c1cc(-c2ccc(C)cc2)cc(-c2cccnc2C(C)C)c1` [Example 14, N-(2-Methylbutan-2-yl)-3-(4-methylphenyl)-5-(2-propan-2-ylpyridin-3-yl)-benzamide] the value was 570 nM.

Take `CC(C)(C)NC(=O)c1cc(-c2ccc(Cl)cc2)cc(-c2cnccc2C(C)(C)C)c1` [Example 53, N-tert-Butyl-3-(4-tert-butylpyridin-3-yl)-5-(4-chlorophenyl)-benzamide]: the melting point amounted to 63.5 °C. The compound `CC(C)(C)NC(=O)c1cc(-c2ccc(Cl)cc2)cc(-c2cncnc2C(C)(C)C)c1` [Example 42, N-tert-Butyl-3-(4-tert-butyl-pyrimidin-5-yl)-5-(4-chlorophenyl)-benzamide] returned a melting point of 108 °C. Consider `CC(C)(C)NC(=O)c1cc(-c2ccc(C(F)(F)F)cc2)cc(-c2cncnc2C(C)(C)C)c1` [Example 49, N-tert-Butyl-3-(4-tert-butyl-pyrimidin-5-yl)-5-[4-(trifluoromethyl)-phenyl]-benzamide], for which the melting point was 91 °C. On to `Cc1ccncc1-c1cc(C(=O)NC(C)(C)C)cc(-c2ccc(Cl)cc2)c1` [Example 7, N-tert-Butyl-3-(4-chlorophenyl)-5-(4-methylpyridin-3-yl)-benzamide], for which the Kb in series [1] came out at 310 nM. The compound `CC(C)(C)NC(=O)c1cc(-c2ccc(F)cc2)cc(-c2cncnc2C(C)(C)C)c1` [Example 51, N-tert-Butyl-3-(4-tert-butyl-pyrimidin-5-yl)-5-(4-fluorophenyl)-benziimide] gave a melting point of 102 °C.
